The values that follow are results of earlier work, collected in paper PMC11267547, “Advancing drug discovery through assay development: a survey of tool compounds within the human solute carrier superfamily” (Frontiers in Pharmacology, 2024).

One data set has as its system SLC6A19. Details: method as in GtoPdb, pubmed 30589598. The settings on record: SLC6A19, known data from the KNIME workflow; ref GtoPdb, pubmed 30589598; cited from earlier work.
The test system of the next data set is SIGMAR1. Details: method as in pubmed 7990111, 9057857, 12801223. Conditions: ref pubmed 7990111, 9057857, 12801223; cited from earlier work.

For `CCNC(=O)/C=C/c1cccc(Br)c1` [Cinromide], in the data set with SLC6A19, the primary_SLC_act is 6.4.
In the case of `Fc1ccc(C(OCCN2CCN(CCCc3ccccc3)CC2)c2ccc(F)cc2)cc1` [Vanoxerine (GBR12909), Vanoxerine], the other_targets_act with SIGMAR1 is given as 7.37.
